Reference: PubChem BioAssay (NCI)
Where “and” joins values, the source holds several entries; their conditions need not be identical. Equal entries are not always repeated.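 Tested at 5 concentrations; 48 h exposure; 96-well plates; endpoints linearly interpolated, else capped at highest concentration. GI50 marks 50% less growth. TGI marks complete inhibition of growth.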

Assays:
Test in all cases: DTP human tumour cell line panel, 48 h
786-0 renal = system: 786-0 renal
HOP-62 NSCLC = system: HOP-62 NSCLC
KM20L2 colon = system: KM20L2 colon
OVCAR-5 ovarian = system: OVCAR-5 ovarian
RXF 393 renal = system: RXF 393 renal
SK-MEL-28 melanoma = system: SK-MEL-28 melanoma
SNB-19 CNS = system: SNB-19 CNS
SNB-78 CNS = system: SNB-78 CNS
UACC-257 melanoma = system: UACC-257 melanoma
MCF7 breast = system: MCF7 breast

Row | SMILES | TGI (786-0 renal) [µM] | TGI (HOP-62 NSCLC) | TGI (KM20L2 colon) | TGI (OVCAR-5 ovarian) [µM] | TGI (RXF 393 renal) | TGI (SK-MEL-28 melanoma) | TGI (SNB-19 CNS) | TGI (SNB-78 CNS) | TGI (UACC-257 melanoma) | GI50 (786-0 renal) [µM] | GI50 (HOP-62 NSCLC) | GI50 (KM20L2 colon) [µM] | GI50 (OVCAR-5 ovarian) [µM] | GI50 (RXF 393 renal) [µM] | GI50 (SK-MEL-28 melanoma) | GI50 (SNB-19 CNS) [µM] | GI50 (SNB-78 CNS) [µM] | GI50 (UACC-257 melanoma) | TGI (MCF7 breast) [µM]
1 | Cc1c(C(=O)/C=C/c2ccc([N+](=O)[O-])cc2)[n+](=O)c2ccccc2n1[O-] | > 100 | > 100 µM | > 100 µM | > 100 | > 100 µM | > 100 µM | > 100 µM | > 100 µM | > 100 µM | – | – | – | – | – | – | – | – | – | –
2 | CC(C)(C)c1cc(Cc2ccc(S(C)(=O)=O)cc2)c(O)c(C(C)(C)C)c1 | 29.6 | 29.8 µM | 29.1 µM | 27.4 | 26.1 µM | 32 µM | 29 µM | 31.4 µM | 31 µM | – | – | – | – | – | – | – | – | – | –
3 | [CH3][Ge]([CH3])([CH2]CC#N)[S]c1ccccc1 | 32.8 | 38.1 µM | 47.9 µM | 39.5 | 27 µM | 65.1 µM | 37.3 µM | 61.8 µM | 70.7 µM | 17.1 | 14.6 µM | 21.6 | 17.8 | 11.8 | 16.5 µM | 18 | 13.5 | 22.7 µM | –
4 | CCCCN(CCCC)CC(C(=O)Nc1ccc([N+](=O)[O-])cc1[N+](=O)[O-])/C(C)=N\NC(=O)c1ccncc1 (stereo not given) | > 100 | > 100 µM | > 100 µM | > 100 | > 100 µM | > 100 µM | > 100 µM | > 100 µM | > 100 µM | – | – | – | – | – | – | – | – | – | –
5 | Nc1nc2c(ncn2C2OC(CO)C(O)C2O)c(=O)o1 (stereo not given) | > 100 | > 100 µM | > 100 µM | > 100 | > 100 µM | > 100 µM | > 100 µM | > 100 µM | > 100 µM | – | – | – | – | – | – | – | – | – | –
6 | COc1ccc(C(=O)C(c2ccc(OC)cc2)C2(O)C(=O)Nc3c(Cl)cc(Cl)cc32)cc1 (stereo not given) | 29 | 54.4 µM | 68 µM | 40.9 | 39.6 µM | 44.4 µM | 56 µM | 57.7 µM | 31.7 µM | – | – | – | – | – | – | – | – | – | –
7 | CCN(CC)CCN1C(=O)c2c(c3c4cccc(Cl)c4n(C4OC(CO)C(OC)C(O)C4O)c3c3[nH]c4c(Cl)cccc4c23)C1=O (stereo not given) | – | – | 0.0103 µM | – | – | – | – | – | – | < 0.0001 | 0.000125 µM and < 0.0318 µM and < 0.01 µM | 0.000446 | – | < 0.0001 | – | – | 0.0475 | – | 0.199
8 | CC1CN1c1c(C(=O)/C=C/c2ccc(F)cc2)c(-c2ccccc2)nn(C)c1=O (stereo not given) | 29.2 | 38.9 µM | 31.6 µM | 25.2 | 22 µM | 32 µM | 30.3 µM | 67.3 µM | 27.4 µM | – | – | – | – | – | – | – | – | – | –
9 | NC(=S)N/N=C/C(O[C@@H](/C=N/NC(N)=S)CO)n1cnc2c(N)ncnc21 (stereo not given in full) | > 100 | > 100 µM | > 100 µM | > 100 | > 100 µM | > 100 µM | > 100 µM | > 100 µM | > 100 µM | – | – | – | – | – | – | – | – | – | –
10 | CCCN(CCCC(NC(C)=O)C(=O)NCc1ccccc1)C(=O)N(C)N=O (stereo not given) | > 100 | > 100 µM | > 100 µM | > 100 | > 100 µM | > 100 µM | – | > 100 µM | > 100 µM | – | – | – | – | – | – | – | – | – | –
11 | CC[C@@]1(O)C(=O)OCc2c1cc1n(c2=O)Cc2cc3cc(O)ccc3nc2-1 | 0.9 | 0.0319 µM and 0.153 µM | 8.14 µM and 4.97 µM | – | 0.165 µM and 0.222 µM | 10 µM and > 38.9 µM | 75 µM and > 23.4 µM | 18.1 µM and > 100 µM | 0.481 µM and 2.1 µM | – | < 0.0075 µM | 0.186 | 0.122 | 0.0311 | 0.166 µM and 0.264 µM | 0.00946 | 0.213 | 0.047 µM and 0.156 µM | –
12 | Oc1ccc(I)c2cccnc12 | > 100 | > 100 µM | > 100 µM | > 100 | 33.1 µM | > 100 µM | > 100 µM | > 100 µM | 73.8 µM | – | – | – | – | – | – | – | – | – | –
13 | O=C1C=C(Nc2cc(Cl)ccc2Cl)c2ccccc2C1=O | > 100 | 72.9 µM | > 100 µM | > 100 | > 100 µM | > 100 µM | > 100 µM | > 100 µM | 41.8 µM | – | – | – | – | – | – | – | – | – | –
14 | CC(=O)c1ccc(NC(=O)C(=O)CC(=O)c2sc(-n3nc(-c4ccccc4)cc3-c3ccccc3)nc2C)cc1 | > 100 | > 100 µM | > 100 µM | > 100 | > 100 µM | – | > 100 µM | > 100 µM | > 100 µM | – | – | – | – | – | – | – | – | – | –
15 | CCOC(=O)C1(C)C2=CC=C(O2)C(C)(C)C2=CC=C(O2)C(C)(C)C2=CC=C(O2)C(C)(C)C2=CC=C1O2 | > 100 | > 100 µM | > 100 µM | > 100 | > 100 µM | > 100 µM | > 100 µM | > 100 µM | > 100 µM | – | – | – | – | – | – | – | – | – | –
16 | CS(=O)(=O)ON1C(=O)c2ccc(N)cc2C1=O | > 100 | > 100 µM | > 100 µM | > 100 | > 71 µM | > 88.6 µM | > 100 µM | > 100 µM | > 31.6 µM | – | – | – | – | – | – | – | – | – | –
17 | O=c1[nH]c(-c2ccccc2)nc2cc([N+](=O)[O-])c(/C(Cl)=C/c3ccccc3)cc12 | > 100 | – | > 100 µM | > 100 | 72.7 µM | > 100 µM | > 100 µM | > 100 µM | 48.3 µM | – | – | – | – | – | – | – | – | – | –
18 | N#CC(Cl)CS(=O)(=O)c1ccccc1 (stereo not given) | 30.5 | > 59.1 µM | 39.4 µM | 35.3 | 6.31 µM | 28 µM | 35.1 µM | 61.3 µM | 14 µM | – | – | – | – | – | – | – | – | – | 32.8
19 | Cc1cc(NS(=O)(=O)c2ccc(NC(=O)c3cccc4c(Nc5ccc(S(=O)(=O)Nc6cc(C)on6)cc5)c5ccc(Cl)cc5nc34)cc2)no1 | > 100 | > 100 µM | > 100 µM | > 100 | > 100 µM | > 100 µM | 81.8 µM | > 100 µM | > 100 µM | – | – | – | – | – | – | – | – | – | –
20 | Nc1nc(N)c2c(Cl)c(CNc3ccc(Cl)c(Cl)c3)ccc2n1 | 8.39 | 6.59 µM | 18.6 µM | 12.1 | 7.26 µM | 18.7 µM | 17.7 µM | 25.4 µM | 19.4 µM | – | – | – | – | – | – | – | – | – | –
21 | COc1c(CC(C)=O)c2ccccc2n1C(C)=O | > 100 | > 100 µM | > 100 µM | – | > 100 µM | > 100 µM | > 100 µM | > 100 µM | > 100 µM | – | – | – | – | – | – | – | – | – | –
